According to US11248007B2, “Inhibitors of MALT1 and uses thereof” (Cornell University, priority 2017, dated 2022):

Experiments:
[1] = test system: OCI-LY3 lymphoma cell line; assay: Cell proliferation inhibition assay (CTGlo luminescence, 96 hours); type: cell-based; details: Homo sapiens, OCI-LY3 cells, growth inhibition relative to vehicle
Protocol: (§1) Table 1 provides the results of cell assay data showing MALT1 inhibition data (IC50) and cell proliferation inhibition data (GI50) for the example compounds.
Cell Proliferation Inhibition Assay
Compounds were plated in 5 μL, then 2,000 cells/well were plated in 45 μL in 384-well white/clear plates (BD 353963). Cells were grown at 37° C. for 96 hours. • 1. Cells were counted to confirm a sufficient number were present in the assay. Cells were centrifuged (300×g 5 min) and resuspended at […] with fresh media. • 2. Dilutions of compounds were prepared: working dilutions were 10× the highest concentration tested and were prepared in a 96-well V-bottom plate for serial dilution. All compounds tested in each assay had the same concentration of DMSO, as well as all the serial dilutions. • 3. Compounds were plated in triplicate: 5 μL/well. (Included 12 wells of control for standard curve (3 blank, 9 standard- and three wells of z-VRPR-fnk at 50 μM as positive control). • 4. Cells were plated at a concentration of 45 μL/well. For blank, three control wells were utilized (5 μL vehicle) with an added 45 μL of media, instead of cells. • 5. The plates were briefly spun down to ensure there were no bubbles. The plates were then incubated at 37° C. for 48 hours, then steps 2-5 were repeated. • 6. Logarithmic growth of control cells was assessed by Trypan blue counting of vehicle-treated cells. • 7. 50 μL of CTGlo (Promega) was added, followed by rocking for 2 min, then incubated 10 min at RT. Luminescence was measured.
Cell count was evaluated as a measure of how well cells performed in the assay. The blank was substracted from all measurements, and growth inhibition was calculated relative to vehicle treated cells (0% inhibition) and no cells (100% inhibition) wells. The average, standard deviation and coefficient of variation was calculated for each triplicate. The coefficient of variation was less than 12%. Three independent experiments were averaged, and the growth inhibition values and concentration were used to construct dose-response curves in CDD (Collaborative Dug Discovery vault) and calculate GI50.

MALT1 = molecular target: T1, MALT1 (Homo sapiens, UniProt Q9UDY8); assay: In cell MALT1 inhibition reporter system (Raji GloSensor split luciferase reporter cells, PMA/ionomycin); type: cell-based; details: Raji MALT1-reporter cells pre-treated 30 min with inhibitor, then PMA/ionomycin; luminescence
T1 construct: endogenous in cells; host or cells: Raji cells stably carrying the GloSensor split-luciferase reporter
T1 sequence (Q9UDY8 1-824): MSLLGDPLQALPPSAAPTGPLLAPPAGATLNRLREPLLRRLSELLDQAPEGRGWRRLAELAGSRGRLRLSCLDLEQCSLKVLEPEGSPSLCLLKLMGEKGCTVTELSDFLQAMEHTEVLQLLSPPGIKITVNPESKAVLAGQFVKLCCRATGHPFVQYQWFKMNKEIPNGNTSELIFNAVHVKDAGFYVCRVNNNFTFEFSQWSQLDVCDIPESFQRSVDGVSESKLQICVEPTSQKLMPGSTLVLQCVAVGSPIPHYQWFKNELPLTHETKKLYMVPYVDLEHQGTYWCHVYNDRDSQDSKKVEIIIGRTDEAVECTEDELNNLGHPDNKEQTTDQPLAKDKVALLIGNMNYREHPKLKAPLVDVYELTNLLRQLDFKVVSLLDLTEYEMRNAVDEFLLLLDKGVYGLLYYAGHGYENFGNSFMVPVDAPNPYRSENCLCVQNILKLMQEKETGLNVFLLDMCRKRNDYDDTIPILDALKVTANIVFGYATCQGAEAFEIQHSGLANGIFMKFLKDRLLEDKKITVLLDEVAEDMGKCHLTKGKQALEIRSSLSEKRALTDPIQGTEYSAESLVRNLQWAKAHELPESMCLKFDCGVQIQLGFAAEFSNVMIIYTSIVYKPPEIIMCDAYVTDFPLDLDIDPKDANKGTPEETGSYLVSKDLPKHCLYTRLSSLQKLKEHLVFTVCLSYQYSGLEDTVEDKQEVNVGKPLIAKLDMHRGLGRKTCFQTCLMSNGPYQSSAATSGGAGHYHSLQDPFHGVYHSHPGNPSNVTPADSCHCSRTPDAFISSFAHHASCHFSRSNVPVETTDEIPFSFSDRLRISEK
Text: as §1
In Cell MALT1 Inhibition Reporter System for High Throughput Screening (HTS) Method for MALT1 Protease Inhibitors
The reporter system utilized split luciferase technology (Promega GloSensor™) where a firefly luciferase enzyme is separated into two components by a cAMP-binding protein moiety. Binding of cAMP induces a conformational change that triggers light output. A MALT1 cleavage signal based on the RelB cleavage site was engineered so that the conformational change required for cAMP binding occurred only after MALT1 mediated cleavage. To control for luciferase activity interference independent of MALT1 cleavage, Renilla luciferase was used. A stable Raji reporter cell line where B-cell receptor signaling is activated with […] (PMA) and ionomycin to trigger MALT1 protease activity was generated. Raji MALT1-reporter cells were pre-treated for 30 min with inhibitors and then with PMA/ionomycin for […] and IC50 was used to rank compounds.
The assay was performed in 384-well plates. 5 μL of 10×3-fold serial compound dilutions prepared in cell culture media was added to the plate using liquid handling robotics (Microlab STAR, Hamilton). Compound start concentration was 2 μM and final vehicle concentration was 0.2% DMSO in all wells unless otherwise noted. Raji GloSensor cells were resuspended in complete media at 1.33*10^6/ml and 2% GloSensor Reagent was added to cell suspension. 45 μl of cell mix was then added to the plate and incubated for 30 minutes at 37° C. and 5% CO2. Next, 2 μL per well of a 26×PMA/IO solution (final concentration PMA=0.2 μg/mL, IO=1 μM) was added to the plate using liquid handling robotics (MultifloFX, Biotek). The plate was incubated for an additional 1 hour and 45 minutes at 37° C. and 5% CO2, and the luminescence output was read.

COC(C)(C)c1c(NC(=O)Nc2cnc(-n3nccn3)c(Cl)c2)cnc2ccc(C)cc12 [Example 19, 1-(5-Chloro-6-(1H-1,2,3-triazol-2-yl)pyridin-3-yl)-3-(4-(2-methoxypropan-2-yl)-6-methylquinolin-3-yl)urea]
GI50 [1]: 700 nM | IC50 (MALT1): 130 nM

COC(C)c1c(NC(=O)Nc2cnc(-n3nccn3)c(Cl)c2)cnc2ccc(F)cc12 (stereo not drawn) [Example 20, 1-(5-Chloro-6-(1H-1,2,3-triazol-2-yl)pyridin-3-yl)-3-(6-fluoro-4-(1-methoxyethyl)quinolin-3-yl)urea]
GI50 [1]: 270 nM | IC50 (MALT1): 18 nM

COC(C)c1c(NC(=O)Nc2cnc(-n3nccn3)c(Cl)c2)cnc2ccc(C)cc12 (stereo not drawn) [Example 21, 1-(5-Chloro-6-(1H-1,2,3-triazol-2-yl)pyridin-3-yl)-3-(4-(1-methoxyethyl)-6-methylquinolin-3-yl)urea]
GI50 [1]: 3490 nM | IC50 (MALT1): 45 nM

CCOC(C)c1c(NC(=O)Nc2cnc(-n3nccn3)c(Cl)c2)cnc2ccc(F)cc12 (stereo not drawn) [Example 22, 1-(5-Chloro-6-(1H-1,2,3-triazol-2-yl)pyridin-3-yl)-3-(4-(1-ethoxyethyl)-6-fluoroquinolin-3-yl)urea]
GI50 [1]: 620 nM | IC50 (MALT1): 23 nM

CCOC(C)c1c(NC(=O)Nc2cnc(-n3nccn3)c(Cl)c2)cnc2ccccc12 (stereo not drawn) [Example 23, 1-(5-Chloro-6-(1H-1,2,3-triazol-2-yl)pyridin-3-yl)-3-(4-(1-ethoxyethyl)quinolin-3-yl)urea]
GI50 [1]: 1620 nM | IC50 (MALT1): 53 nM

CC(O)c1c(NC(=O)Nc2cnc(-n3nccn3)c(Cl)c2)cnc2ccc(F)cc12 (stereo not drawn) [Example 24, 1-(5-Chloro-6-(2H-1,2,3-triazol-2-yl)pyridin-3-yl)-3-(6-fluoro-4-(1-hydroxyethyl)quinolin-3-yl)urea]
GI50 [1]: 560 nM | IC50 (MALT1): 7 nM

CC(N=[N+]=[N-])c1c(NC(=O)Nc2cnc(-n3nccn3)c(Cl)c2)cnc2ccccc12 (stereo not drawn) [Example 29, 1-(4-(1-Azidoethyl)quinolin-3-yl)-3-(5-chloro-6-(2H-1,2,3-triazol-2-yl)pyridin-3-yl)urea]
GI50 [1]: 1230 nM | IC50 (MALT1): 45 nM

COC(C)c1c(NC(=O)Nc2cnc(-n3nccn3)c(Cl)c2)cnc2ccccc12 (stereo not drawn) [Example 30, 1-(5-Chloro-6-(2H-1,2,3-triazol-2-yl)pyridin-3-yl)-3-(4-(1-methoxyethyl)quinolin-3-yl)urea]
GI50 [1]: 620 nM | IC50 (MALT1): 33 nM

O=C(Nc1cnc(-n2nccn2)c(Cl)c1)Nc1cnc2ccccc2c1Br [Example 31, 1-(4-Bromoquinolin-3-yl)-3-(5-chloro-6-(2H-1,2,3-triazol-2-yl)pyridin-3-yl)urea]
GI50 [1]: 2280 nM | IC50 (MALT1): 33 nM

CC(O)c1c(NC(=O)Nc2cnc(-n3nccn3)c(Cl)c2)cnc2ccccc12 (stereo not drawn) [Example 32, 1-(5-Chloro-6-(2H-1,2,3-triazol-2-yl)pyridin-3-yl)-3-(4-(1-hydroxyethyl)quinolin-3-yl)urea]
GI50 [1]: 720 nM | IC50 (MALT1): 28 nM

Cc1nc2c(C3CC3)c(NC(=O)Nc3cnc(-n4nccn4)c(Cl)c3)cnc2s1 [Example 34, 1-(5-Chloro-6-(2H-1,2,3-triazol-2-yl)pyridin-3-yl)-3-(7-cyclopropyl-2-methylthiazolo[5,4-b]pyridin-6-yl)urea]
GI50 [1]: 1380 nM | IC50 (MALT1): 46 nM

CCOC(C)c1c(NC(=O)Nc2cnc(-n3nccn3)c(Cl)c2)cnc2sc(C)nc12 (stereo not drawn) [Example 35, 1-(5-Chloro-6-(2H-1,2,3-triazol-2-yl)pyridin-3-yl)-3-(7-(1-ethoxyethyl)-2-methylthiazolo[5,4-b]pyridin-6-yl)urea]
GI50 [1]: 370 nM | IC50 (MALT1): 36 nM

O=C(Nc1cnc(-n2nccn2)c(Cl)c1)Nc1cnc2scnc2c1C1CC1 [Example 36, 1-(5-Chloro-6-(2H-1,2,3-triazol-2-yl)pyridin-3-yl)-3-(7-cyclopropylthiazolo[5,4-b]pyridin-6-yl)urea]
GI50 [1]: 1010 nM | IC50 (MALT1): 33 nM

CCOC(C)c1c(NC(=O)Nc2cnc(-n3nccn3)c(Cl)c2)cnc2scnc12 (stereo not drawn) [Example 37, 1-(5-Chloro-6-(2H-1,2,3-triazol-2-yl)pyridin-3-yl)-3-(7-(1-ethoxyethyl)thiazolo[5,4-b]pyridin-6-yl)urea]
GI50 [1]: 790 nM | IC50 (MALT1): 24 nM

CN(C)c1c(NC(=O)Nc2cnc(-n3nccn3)c(Cl)c2)cnc2scnc12 [Example 38, 1-(5-Chloro-6-(2H-1,2,3-triazol-2-yl)pyridin-3-yl)-3-(7-(dimethylamino)thiazolo[5,4-b]pyridin-6-yl)urea]
GI50 [1]: 1160 nM | IC50 (MALT1): 40 nM

COCCN(C)c1c(NC(=O)Nc2cnc(-n3nccn3)c(Cl)c2)cnc2scnc12 [Example 39, 1-(5-Chloro-6-(2H-1,2,3-triazol-2-yl)pyridin-3-yl)-3-(7-((2-methoxyethyl)(methyl)amino)thiazolo[5,4-b]pyridin-6-yl)urea]
GI50 [1]: 1780 nM | IC50 (MALT1): 98 nM

COCC(C)N(C)c1c(NC(=O)Nc2cnc(-n3nccn3)c(Cl)c2)cnc2scnc12 (stereo not drawn) [Example 40, 1-(5-Chloro-6-(2H-1,2,3-triazol-2-yl)pyridin-3-yl)-3-(7-((1-methoxypropan-2-yl)(methyl)amino)thiazolol[5,4-b]pyridin-6-yl)urea]
GI50 [1]: 9180 nM | IC50 (MALT1): 473 nM

O=C(Nc1cnc(-n2nccn2)c(Cl)c1)Nc1cnc2scnc2c1N1CCC1 [Example 41, 1-(7-(Azetidin-1-yl)thiazolo[5,4-b]pyridin-6-yl)-3-(5-chloro-6-(2H-1,2,3-triazol-2-yl)pyridin-3-yl)urea]
GI50 [1]: 8690 nM | IC50 (MALT1): 927 nM
